The results in this text go back to PubChem BioAssay AID192 (DTP/NCI, 2004).

This assay deals with BDF1 mice, B16 melanoma ip, median survival T/C. Kind of assay: NCI In Vivo Anticancer Drug Screen. Data for tumor model B16 Melanoma (intraperitoneal) in B6D2F1 (BDF1) mice. The note with it: endpoint: median survival time, higher = longer survival. The method, boiled down: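 The ratio T/C compares compound-treated mice with vehicle-treated controls, using survival or tumor size as the endpoint in a transplantable tumor model.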

[1] abbreviates: dose: 12.5 mg/kg/injection, schedule: Q01DX009 (ip), vehicle: saline.
Setting [2] is: dose: 25.0 mg/kg/injection, schedule: Q01DX009 (ip), vehicle: saline.
Setting [3] is: dose: 50.0 mg/kg/injection, schedule: Q01DX009 (ip), vehicle: Klucel (hydroxypropylcellulose) (HPC).
Setting [4] is: dose: 50.0 mg/kg/injection, schedule: Q01DX009 (ip), vehicle: saline.
Where [5] appears, read: dose: 100.0 mg/kg/injection, schedule: Q01DX009 (ip), vehicle: saline.
The mark [6] stands for this setting: dose: 100.0 mg/kg/injection, schedule: Q01DX009 (ip), vehicle: Klucel (hydroxypropylcellulose) (HPC).
Where [7] appears, read: dose: 200.0 mg/kg/injection, schedule: Q01DX009 (ip), vehicle: Klucel (hydroxypropylcellulose) (HPC).
Where [8] appears, read: dose: 200.0 mg/kg/injection, schedule: Q01DX009 (ip), vehicle: saline.
Where [9] appears, read: dose: 50.0 mg/kg/injection, schedule: Q04DX003 (ip), vehicle: saline with Tween-80.
Where [10] appears, read: dose: 100.0 mg/kg/injection, schedule: Q04DX003 (ip), vehicle: saline with Tween-80.

Each structure is given as a SMILES string. “And” between values parts separate entries of the source, which are not always exact repeats. Equal entries are not always repeated. Toxic doses and inconclusive results are not listed. Numbered stars: 1 amine (or outer) side, 2 acyl side, 3 side chain; on linkers, the order of the positions; unused ones are H or OH. Bridge positions count the residues as written; N and C are the ends. Square brackets hold non-standard residues; d marks the D form. Peptide text beside a SMILES is read from it. I, II: the chains in the order shown. Actinocin(9to1) = Cc1c2oc3c(C)ccc(C(=O)[*:1])c3nc-2c(C(=O)[*:2])c(N)c1=O; NMeV = CN[CH](C(=O)O)C(C)C; Pip = O=C(O)[CH]1CCCCN1; Sar = CNCC(=O)O

Regarding `CN1CCc2cc3c(c4c2C1C(O)c1ccccc1-4)OCO3` (configuration not stated), the T/C runs as follows: (dose: 0.5 mg/kg/injection, schedule: Q01DX009 (ip), vehicle: acid diluted with saline) 113 % of control; (dose: 1.0 mg/kg/injection, schedule: Q01DX009 (ip), vehicle: acid diluted with saline) 109 % of control; (dose: 2.0 mg/kg/injection, schedule: Q01DX009 (ip), vehicle: acid diluted with saline) 96 % of control; (dose: 4.0 mg/kg/injection, schedule: Q01DX009 (ip), vehicle: acid diluted with saline) 89 % of control.

With `C1CCN(CN2CCCCC2)CC1`, the T/C under setting [1] is 97 % of control and the T/C under setting [2] is 93 % of control.

Turning to `COc1ccc([I+]c2cccc(Cl)c2)cc1Cl`, the T/C runs as follows: (dose: 6.25 mg/kg/injection, schedule: Q01DX009 (ip), vehicle: saline with Tween-80) 112 % of control; (dose: 12.5 mg/kg/injection, schedule: Q01DX009 (ip), vehicle: saline with Tween-80) 112 % of control; (dose: 25.0 mg/kg/injection, schedule: Q01DX009 (ip), vehicle: saline with Tween-80) 104 % of control.

As for `CCCC(=O)OCc1cc(=O)n(C)c2c3c4c(cc12)c(C)cc(=O)n4CO3`, the T/C (dose: 3.12 mg/kg/injection, schedule: Q01DX009 (ip), vehicle: Klucel (hydroxypropylcellulose) (HPC)) was 106 % of control; the T/C (dose: 6.25 mg/kg/injection, schedule: Q01DX009 (ip), vehicle: Klucel (hydroxypropylcellulose) (HPC)) was 101 % of control and 110 % of control; the T/C (dose: 12.5 mg/kg/injection, schedule: Q01DX009 (ip), vehicle: Klucel (hydroxypropylcellulose) (HPC)) is 120 % of control; the T/C under setting [3] is 153 % of control.

Consider `CCN(CC)CCOC(=O)C(c1ccccc1)C1CCCCC1` (configuration not stated), for which the T/C was 99 % of control (dose: 6.25 mg/kg/injection, schedule: Q01DX009 (ip), vehicle: saline); 108 % of control under setting [1]; 108 % of control under setting [2]; 118 % of control under setting [4]; 110 % of control under setting [5].

In the case of `CC(C)CC(C)(c1ccc(O)cc1)c1ccc(O)cc1`, the T/C runs as follows: (dose: 100.0 mg/kg/injection, schedule: Q01DX009 (ip), vehicle: saline with Tween-80) 98 % of control; (dose: 200.0 mg/kg/injection, schedule: Q01DX009 (ip), vehicle: saline with Tween-80) 98 % of control.

For `CC(C)(C)CC(N)=O`, the T/C by setting is: under setting [3], 112 % of control; under setting [6], 100 % of control; under setting [5], 107 % of control; under setting [7], 105 % of control; under setting [8], 123 % of control; (dose: 400.0 mg/kg/injection, schedule: Q01DX009 (ip), vehicle: Klucel (hydroxypropylcellulose) (HPC)) 105 % of control. Moreover, for the setting “dose: 400.0 mg/kg/injection, schedule: Q01DX009 (ip), vehicle: saline”, the T/C was 107 % of control.

On to `COc1cc([C@@H]2c3cc4c(cc3C[C@H]3COC(=O)[C@@H]32)OCO4)cc(OC)c1OC`, for which the T/C runs as follows: (dose: 5.0 mg/kg/injection, schedule: Q01DX009 (ip), vehicle: saline) 107 % of control; (dose: 10.0 mg/kg/injection, schedule: Q01DX009 (ip), vehicle: saline) 109 % of control.

For `CO[C@H]1/C=C/O[C@@]2(C)Oc3c(C)c(O)c4c(O)c(c(/C=N/N5C(C)CN(Cc6ccccc6)CC5C)c(O)c4c3C2=O)NC(=O)/C(C)=C\C=C\[C@H](C)[C@H](O)[C@@H](C)[C@@H](O)[C@@H](C)[C@H](OC(C)=O)[C@@H]1C` (some centres not stated), the T/C (dose: 8.0 mg/kg/injection, schedule: Q03HX008 (ip), vehicle: clinical formulation) was 94 % of control; the T/C (dose: 8.0 mg/kg/injection, schedule: Q03HX024 (ip), vehicle: clinical formulation) was 88 % of control; the T/C (dose: 16.0 mg/kg/injection, schedule: Q03HX008 (ip), vehicle: clinical formulation) is 90 % of control; the T/C (dose: 25.0 mg/kg/injection, schedule: Q02DX Z (oral), vehicle: Klucel (hydroxypropylcellulose) (HPC)) was 98 % of control; the T/C (dose: 32.0 mg/kg/injection, schedule: Q03HX024 (ip), vehicle: clinical formulation) was 88 % of control; the T/C under setting [4] was 123 % of control. Besides, the T/C is, setting by setting: (dose: 50.0 mg/kg/injection, schedule: Q02DX Z (oral), vehicle: Klucel (hydroxypropylcellulose) (HPC)) 116 % of control; (dose: 64.0 mg/kg/injection, schedule: Q04DX005 (ip), vehicle: clinical formulation) 93 % of control; (dose: 64.0 mg/kg/injection, schedule: Q08DX003 (ip), vehicle: clinical formulation) 91 % of control; (dose: 100.0 mg/kg/injection, schedule: Q02DX Z (oral), vehicle: Klucel (hydroxypropylcellulose) (HPC)) 103 % of control; under setting [8], 110 % of control; (dose: 200.0 mg/kg/injection, schedule: Q02DX Z (oral), vehicle: Klucel (hydroxypropylcellulose) (HPC)) 114 % of control. For the same molecule, the T/C (dose: 256.0 mg/kg/injection, schedule: Q01DX001 (ip), vehicle: clinical formulation) was 86 % of control; the T/C (dose: 400.0 mg/kg/injection, schedule: Q02DX Z (oral), vehicle: Klucel (hydroxypropylcellulose) (HPC)) is 88 % of control; the T/C (dose: 800.0 mg/kg/injection, schedule: Q02DX Z (oral), vehicle: Klucel (hydroxypropylcellulose) (HPC)) is 113 % of control; the T/C (dose: 1600.0 mg/kg/injection, schedule: Q02DX Z (oral), vehicle: Klucel (hydroxypropylcellulose) (HPC)) is 97 % of control.

Consider `Cc1c2oc3c(C)ccc(C(=O)NC4C(=O)NC(C(C)C)C(=O)N5CCCCC5C(=O)N(C)CC(=O)N(C)C(C(C)C)C(=O)OC4C)c3nc-2c(C(=O)NC2C(=O)NC(C(C)C)C(=O)N3CCCCC3C(=O)N(C)CC(=O)N(C)C(C(C)C)C(=O)OC2C)c(N)c1=O` (configuration not stated) (I: TV[Pip][Sar][NMeV] / II: TV[Pip][Sar][NMeV]; ester I:1-I:C, II:1-II:C; linker I:N-II:N via Actinocin(9to1); configuration not given here), for which the T/C (dose: 0.25 mg/kg/injection, schedule: Q01DX009 (ip), vehicle: saline + alcohol) was 120 % of control; the T/C (dose: 0.5 mg/kg/injection, schedule: Q01DX009 (ip), vehicle: saline + alcohol) is 123 % of control; the T/C (dose: 0.75 mg/kg/injection, schedule: Q04DX003 (ip), vehicle: saline + alcohol) was 99 % of control and 116 % of control; the T/C (dose: 1.5 mg/kg/injection, schedule: Q04DX003 (ip), vehicle: saline + alcohol) is 111 % of control and 116 % of control; the T/C (dose: 2.0 mg/kg/injection, schedule: Q01DX009 (ip), vehicle: saline + alcohol) is 157 % of control; the T/C (dose: 6.0 mg/kg/injection, schedule: Q04DX003 (ip), vehicle: saline + alcohol) is 155 % of control.

Take `CC(C)(C)OC(=O)N1CCCC1C(=O)Oc1ccc([N+](=O)[O-])cc1` (configuration not stated): the T/C (dose: 25.0 mg/kg/injection, schedule: Q04DX003 (ip), vehicle: saline with Tween-80) is 94 % of control; the T/C under setting [9] is 109 % of control; the T/C under setting [10] was 104 % of control.

In the case of `O=C(Nc1ccccc1F)c1cccc(C(=O)Nc2ccccc2F)c1`, the T/C by setting is: under setting [3], 101 % of control; under setting [6], 108 % of control; under setting [7], 96 % of control.

As for `COC(=O)C(C(=O)OC)C(Br)(OC(C)=O)OC(C)=O`, the T/C is, setting by setting: under setting [9], 105 % of control; under setting [10], 95 % of control; (dose: 200.0 mg/kg/injection, schedule: Q04DX003 (ip), vehicle: saline with Tween-80) 99 % of control; (dose: 400.0 mg/kg/injection, schedule: Q04DX003 (ip), vehicle: saline with Tween-80) 103 % of control.

In the case of `CC(C)CN(C)/N=N/c1nc[nH]c1C(N)=O`, the T/C is 111 % of control (dose: 18.75 mg/kg/injection, schedule: Q01DX009 (ip), vehicle: carboxymethylcellulose (CMC)) and 123 % of control (dose: 75.0 mg/kg/injection, schedule: Q01DX009 (ip), vehicle: carboxymethylcellulose (CMC)).

Take `COc1ccc([C@@H]2c3cc4c(cc3C[C@H]3COC(=O)[C@@H]32)OCO4)cc1OC`: the T/C is, setting by setting: (dose: 11.0 mg/kg/injection, schedule: Q01DX009 (ip), vehicle: saline with Tween-80) 124 % of control; (dose: 22.0 mg/kg/injection, schedule: Q01DX009 (ip), vehicle: saline with Tween-80) 111 % of control; (dose: 33.0 mg/kg/injection, schedule: Q01DX009 (ip), vehicle: saline with Tween-80) 124 % of control; (dose: 67.0 mg/kg/injection, schedule: Q01DX009 (ip), vehicle: saline with Tween-80) 113 % of control.

As for `N#Cc1cccnc1.NCCNCCN.[Br-].[Pt+4]`, the T/C under setting [1] is 100 % of control; the T/C under setting [2] was 94 % of control; the T/C under setting [4] was 99 % of control; the T/C under setting [5] was 99 % of control; the T/C under setting [8] is 89 % of control.
